Data taken from the kinase profiling compilation of Christmann-Franck et al. (2016).

Columns and labels:
Experiment in all cases: KINOMEscan competition binding
RIOK3 (human) = RIOK3 (human) (UniProt O14730); conditions: compound 10.0 µM
[1] = system: KIT (human), P10721 [D816V]; conditions: compound 10.0 µM
CDK7 (human) = CDK7 (human) (UniProt P50613); conditions: compound 10.0 µM
CDK16 (human) = CDK16 (human) (UniProt Q00536); conditions: compound 10.0 µM
STK11 (human) = STK11 (human) (UniProt Q15831); conditions: compound 10.0 µM
MAP2K3 (human) = MAP2K3 (human) (UniProt P46734); conditions: compound 10.0 µM
[2] = biological target: JAK1 JH2 pseudokinase (human) (UniProt P23458); conditions: compound 10.0 µM
MAPK15 (human) = MAPK15 (human) (UniProt Q8TD08); conditions: for kinase still bound, per cent of control: compound 10.0 µM
STK17A (human) = STK17A (human) (UniProt Q9UEE5); conditions: for kinase still bound, per cent of control: compound 10.0 µM
RIOK1 (human) = RIOK1 (human) (UniProt Q9BRS2); conditions: compound 10.0 µM
CLK4 (human) = CLK4 (human) (UniProt Q9HAZ1); conditions: compound 10.0 µM
PIM3 (human) = PIM3 (human) (UniProt Q86V86); conditions: for kinase still bound, per cent of control: compound 10.0 µM
[3] = system: FLT3 (human), P36888 [N841I]; conditions: compound 10.0 µM
STK24 (human) = STK24 (human) (UniProt Q9Y6E0); conditions: compound 10.0 µM
TLK1 (human) = TLK1 (human) (UniProt Q9UKI8); conditions: compound 10.0 µM
TAOK1 (human) = TAOK1 (human) (UniProt Q7L7X3); conditions: compound 10.0 µM
DMPK (human) = DMPK (human) (UniProt Q09013); conditions: compound 10.0 µM
MAP4K2 (human) = MAP4K2 (human) (UniProt Q12851); conditions: compound 10.0 µM
AURKB (human) = AURKB (human) (UniProt Q96GD4); conditions: compound 10.0 µM
DAPK2 (human) = DAPK2 (human) (UniProt Q9UIK4); conditions: for kinase still bound, per cent of control: compound 10.0 µM
RPS6KA6 KD2 (human) = RPS6KA6 KD2 (human) (UniProt Q9UK32); conditions: compound 10.0 µM
[4] = system: FLT3 (human), P36888 [D835H]; conditions: compound 10.0 µM
DYRK1B (human) = DYRK1B (human) (UniProt Q9Y463); conditions: compound 10.0 µM
ACVR2B (human) = ACVR2B (human) (UniProt Q13705); conditions: compound 10.0 µM
KIT (human) = KIT (human) (UniProt P10721); conditions: compound 10.0 µM
CAMKK1 (human) = CAMKK1 (human) (UniProt Q8N5S9); conditions: compound 10.0 µM
CHUK (human) = CHUK (human) (UniProt O15111); conditions: compound 10.0 µM
CLK2 (human) = CLK2 (human) (UniProt P49760); conditions: for kinase still bound, per cent of control: compound 10.0 µM
PHKG2 (human) = PHKG2 (human) (UniProt P15735); conditions: compound 10.0 µM
ULK2 (human) = ULK2 (human) (UniProt Q8IYT8); conditions: for kinase still bound, per cent of control: compound 10.0 µM
RIPK2 (human) = RIPK2 (human) (UniProt O43353); conditions: compound 10.0 µM
STK16 (human) = STK16 (human) (UniProt O75716); conditions: compound 10.0 µM
BRSK2 (human) = BRSK2 (human) (UniProt Q8IWQ3); conditions: compound 10.0 µM
DCLK3 (human) = DCLK3 (human) (UniProt Q9C098); conditions: compound 10.0 µM
CSNK1G1 (human) = CSNK1G1 (human) (UniProt Q9HCP0); conditions: compound 10.0 µM
MYLK3 (human) = MYLK3 (human) (UniProt Q32MK0); conditions: compound 10.0 µM
[5] = system: EGFR (human), P00533 [G719S]; conditions: compound 10.0 µM
[6] = system: EGFR (human), P00533 [747-751 del / S ins]; conditions: compound 10.0 µM
PIM2 (human) = PIM2 (human) (UniProt Q9P1W9); conditions: compound 10.0 µM
[7] = biological target: TYK2 JH2 pseudokinase (human) (UniProt P29597); conditions: compound 10.0 µM
PRKD3 (human) = PRKD3 (human) (UniProt O94806); conditions: compound 10.0 µM
TNK1 (human) = TNK1 (human) (UniProt Q13470); conditions: compound 10.0 µM

Chain of DAPK2 (human) (Q9UIK4 whole entry, looked up): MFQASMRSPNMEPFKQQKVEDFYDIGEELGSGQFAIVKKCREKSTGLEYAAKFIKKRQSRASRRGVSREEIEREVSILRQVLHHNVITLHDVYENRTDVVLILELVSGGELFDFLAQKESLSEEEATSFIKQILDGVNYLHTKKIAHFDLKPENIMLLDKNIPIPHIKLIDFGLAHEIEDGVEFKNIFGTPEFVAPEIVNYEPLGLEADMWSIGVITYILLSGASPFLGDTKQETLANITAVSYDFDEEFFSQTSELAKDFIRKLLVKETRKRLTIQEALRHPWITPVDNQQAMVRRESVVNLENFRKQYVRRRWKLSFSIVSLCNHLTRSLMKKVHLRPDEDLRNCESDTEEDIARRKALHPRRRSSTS
Chain of RIPK2 (human) (O43353 whole entry, looked up): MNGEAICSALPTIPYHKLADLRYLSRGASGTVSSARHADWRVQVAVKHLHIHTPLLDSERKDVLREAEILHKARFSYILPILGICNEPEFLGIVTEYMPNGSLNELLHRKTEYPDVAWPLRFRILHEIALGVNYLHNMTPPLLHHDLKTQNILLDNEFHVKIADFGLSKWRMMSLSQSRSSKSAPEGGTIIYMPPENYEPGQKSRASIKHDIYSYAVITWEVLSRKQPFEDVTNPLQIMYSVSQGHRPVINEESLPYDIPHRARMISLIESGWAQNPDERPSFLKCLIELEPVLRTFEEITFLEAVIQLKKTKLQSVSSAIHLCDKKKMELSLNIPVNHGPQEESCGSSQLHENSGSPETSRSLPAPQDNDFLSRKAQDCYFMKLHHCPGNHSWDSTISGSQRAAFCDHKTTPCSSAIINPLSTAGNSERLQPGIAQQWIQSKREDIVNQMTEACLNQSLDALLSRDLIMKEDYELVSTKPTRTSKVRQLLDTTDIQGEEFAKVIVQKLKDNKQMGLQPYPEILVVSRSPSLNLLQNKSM
Chain of RPS6KA6 KD2 (human) (Q9UK32 whole entry, looked up): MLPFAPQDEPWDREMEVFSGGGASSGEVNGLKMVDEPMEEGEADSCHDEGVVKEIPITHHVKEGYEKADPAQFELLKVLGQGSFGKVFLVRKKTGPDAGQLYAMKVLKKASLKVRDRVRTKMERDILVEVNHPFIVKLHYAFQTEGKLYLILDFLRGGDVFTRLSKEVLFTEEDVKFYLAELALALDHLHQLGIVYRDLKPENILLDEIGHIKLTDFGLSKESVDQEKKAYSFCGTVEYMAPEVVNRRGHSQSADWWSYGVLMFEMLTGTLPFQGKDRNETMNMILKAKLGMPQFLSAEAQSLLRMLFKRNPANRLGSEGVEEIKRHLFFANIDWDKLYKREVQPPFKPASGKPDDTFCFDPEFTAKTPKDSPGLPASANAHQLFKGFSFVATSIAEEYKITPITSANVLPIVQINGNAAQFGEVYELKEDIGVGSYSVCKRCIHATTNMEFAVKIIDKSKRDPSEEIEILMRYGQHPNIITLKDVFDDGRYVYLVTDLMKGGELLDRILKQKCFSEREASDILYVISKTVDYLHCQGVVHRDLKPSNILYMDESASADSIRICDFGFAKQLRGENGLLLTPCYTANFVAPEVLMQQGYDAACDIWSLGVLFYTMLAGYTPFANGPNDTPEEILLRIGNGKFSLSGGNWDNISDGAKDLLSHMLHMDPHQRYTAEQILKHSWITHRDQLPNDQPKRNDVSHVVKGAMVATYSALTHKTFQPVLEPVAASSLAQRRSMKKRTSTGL
Chain of TYK2 JH2 pseudokinase (human) (P29597 whole entry, looked up): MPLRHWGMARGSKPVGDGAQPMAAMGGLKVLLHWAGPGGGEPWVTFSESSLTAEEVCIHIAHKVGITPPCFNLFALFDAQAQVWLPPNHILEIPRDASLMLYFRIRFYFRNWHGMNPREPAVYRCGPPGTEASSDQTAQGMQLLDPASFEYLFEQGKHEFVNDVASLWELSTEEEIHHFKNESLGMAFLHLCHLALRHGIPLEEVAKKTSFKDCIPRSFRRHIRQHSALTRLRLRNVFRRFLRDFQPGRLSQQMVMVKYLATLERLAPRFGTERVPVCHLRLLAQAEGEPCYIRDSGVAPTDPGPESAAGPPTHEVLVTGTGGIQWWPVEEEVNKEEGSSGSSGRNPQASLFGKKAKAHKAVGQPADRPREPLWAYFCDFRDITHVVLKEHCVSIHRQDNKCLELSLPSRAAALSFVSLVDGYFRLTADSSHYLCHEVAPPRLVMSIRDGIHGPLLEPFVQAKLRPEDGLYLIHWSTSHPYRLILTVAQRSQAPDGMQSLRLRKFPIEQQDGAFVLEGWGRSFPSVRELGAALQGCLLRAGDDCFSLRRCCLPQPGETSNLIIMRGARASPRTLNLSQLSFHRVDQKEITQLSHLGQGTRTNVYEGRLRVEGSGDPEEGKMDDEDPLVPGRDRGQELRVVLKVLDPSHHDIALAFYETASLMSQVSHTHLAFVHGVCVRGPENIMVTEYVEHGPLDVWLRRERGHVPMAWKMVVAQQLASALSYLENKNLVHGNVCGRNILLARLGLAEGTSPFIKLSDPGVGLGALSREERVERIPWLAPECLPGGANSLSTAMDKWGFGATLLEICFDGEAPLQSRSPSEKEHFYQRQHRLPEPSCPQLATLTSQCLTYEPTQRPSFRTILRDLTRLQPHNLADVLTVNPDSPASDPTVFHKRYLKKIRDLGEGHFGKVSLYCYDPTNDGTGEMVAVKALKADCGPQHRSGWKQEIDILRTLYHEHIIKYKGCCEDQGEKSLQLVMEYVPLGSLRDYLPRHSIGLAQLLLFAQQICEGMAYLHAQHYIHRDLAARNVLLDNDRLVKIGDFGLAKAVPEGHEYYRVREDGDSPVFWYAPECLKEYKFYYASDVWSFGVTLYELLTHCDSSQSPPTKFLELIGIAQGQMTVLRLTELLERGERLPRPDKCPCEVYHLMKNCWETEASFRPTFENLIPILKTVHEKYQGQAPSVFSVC
Chain of MAP2K3 (human) (P46734 whole entry, looked up): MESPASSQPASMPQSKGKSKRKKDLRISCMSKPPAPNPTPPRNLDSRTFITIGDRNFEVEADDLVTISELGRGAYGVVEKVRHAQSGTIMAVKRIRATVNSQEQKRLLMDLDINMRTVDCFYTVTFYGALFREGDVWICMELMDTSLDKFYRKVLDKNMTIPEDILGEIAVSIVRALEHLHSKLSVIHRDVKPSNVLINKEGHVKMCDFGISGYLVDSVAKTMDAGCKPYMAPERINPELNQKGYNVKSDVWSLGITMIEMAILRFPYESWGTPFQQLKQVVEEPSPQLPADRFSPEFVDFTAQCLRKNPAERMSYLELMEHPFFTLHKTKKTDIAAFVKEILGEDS
Chain of KIT (human), P10721 [D816V] (P10721 whole entry D816V, looked up): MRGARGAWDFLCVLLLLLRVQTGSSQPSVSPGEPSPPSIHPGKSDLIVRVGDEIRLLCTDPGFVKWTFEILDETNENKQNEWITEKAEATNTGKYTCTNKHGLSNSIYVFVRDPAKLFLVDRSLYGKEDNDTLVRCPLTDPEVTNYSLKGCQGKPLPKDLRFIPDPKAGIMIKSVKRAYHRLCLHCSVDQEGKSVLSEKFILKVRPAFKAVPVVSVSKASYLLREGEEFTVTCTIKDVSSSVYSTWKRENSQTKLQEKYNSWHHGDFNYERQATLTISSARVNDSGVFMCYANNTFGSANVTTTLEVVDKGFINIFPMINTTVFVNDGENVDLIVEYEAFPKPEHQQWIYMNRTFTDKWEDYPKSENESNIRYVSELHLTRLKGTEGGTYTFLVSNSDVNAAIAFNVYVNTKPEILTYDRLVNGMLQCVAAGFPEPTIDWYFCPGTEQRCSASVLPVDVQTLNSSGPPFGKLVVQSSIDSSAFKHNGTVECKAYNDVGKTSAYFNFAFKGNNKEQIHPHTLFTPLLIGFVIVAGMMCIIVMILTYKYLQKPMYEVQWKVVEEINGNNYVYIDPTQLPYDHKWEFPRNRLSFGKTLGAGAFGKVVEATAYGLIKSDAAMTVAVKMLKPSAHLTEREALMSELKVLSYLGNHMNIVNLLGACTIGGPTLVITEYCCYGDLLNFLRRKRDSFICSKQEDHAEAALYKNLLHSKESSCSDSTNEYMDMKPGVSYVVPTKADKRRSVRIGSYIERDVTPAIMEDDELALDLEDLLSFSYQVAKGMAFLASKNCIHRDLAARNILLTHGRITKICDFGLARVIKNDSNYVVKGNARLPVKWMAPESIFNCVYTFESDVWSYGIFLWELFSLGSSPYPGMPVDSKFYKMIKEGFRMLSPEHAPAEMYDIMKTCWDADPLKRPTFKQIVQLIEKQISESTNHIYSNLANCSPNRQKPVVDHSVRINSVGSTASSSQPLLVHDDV
Chain of RIOK3 (human) (O14730 whole entry, looked up): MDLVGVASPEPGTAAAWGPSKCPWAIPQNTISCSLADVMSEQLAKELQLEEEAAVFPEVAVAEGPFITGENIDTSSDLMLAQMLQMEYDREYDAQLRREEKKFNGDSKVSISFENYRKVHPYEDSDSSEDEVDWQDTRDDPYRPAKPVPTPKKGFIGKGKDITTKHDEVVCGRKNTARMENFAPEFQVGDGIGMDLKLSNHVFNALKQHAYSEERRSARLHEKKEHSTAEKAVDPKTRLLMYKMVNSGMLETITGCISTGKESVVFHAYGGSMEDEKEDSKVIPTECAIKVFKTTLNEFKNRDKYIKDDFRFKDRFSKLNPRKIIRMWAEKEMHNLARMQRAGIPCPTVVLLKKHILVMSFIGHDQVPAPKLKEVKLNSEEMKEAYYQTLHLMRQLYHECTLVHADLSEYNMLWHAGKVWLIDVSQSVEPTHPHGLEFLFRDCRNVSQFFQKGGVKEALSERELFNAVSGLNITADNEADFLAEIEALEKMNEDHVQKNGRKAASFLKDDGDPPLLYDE
Chain of CDK7 (human) (P50613 whole entry, looked up): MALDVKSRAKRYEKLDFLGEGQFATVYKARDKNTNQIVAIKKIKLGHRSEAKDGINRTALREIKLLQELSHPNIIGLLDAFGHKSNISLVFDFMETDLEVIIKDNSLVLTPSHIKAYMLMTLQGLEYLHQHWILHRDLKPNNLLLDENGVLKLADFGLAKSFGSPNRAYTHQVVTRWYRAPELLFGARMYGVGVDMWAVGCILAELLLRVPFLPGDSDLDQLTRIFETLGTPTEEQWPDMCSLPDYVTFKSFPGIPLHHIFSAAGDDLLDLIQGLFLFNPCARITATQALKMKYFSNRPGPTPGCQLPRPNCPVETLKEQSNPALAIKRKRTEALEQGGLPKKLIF

## CN1CCN(c2ccc(C(=O)Nc3ncc4c(n3)N(C)c3ccccc3C(=O)N4C)cc2)CC1
RIOK3 (human)
  kinase still bound, per cent of control: 71%
[1]
  kinase still bound, per cent of control: 100%
CDK7 (human)
  kinase still bound, per cent of control: 74%
CDK16 (human)
  kinase still bound, per cent of control: 100%
STK11 (human)
  kinase still bound, per cent of control: 100%
MAP2K3 (human)
  kinase still bound, per cent of control: 84%
[2]
  kinase still bound, per cent of control: 100%
MAPK15 (human)
  kinase still bound, per cent of control: 100%
STK17A (human)
  kinase still bound, per cent of control: 100%
RIOK1 (human)
  kinase still bound, per cent of control: 80%
CLK4 (human)
  kinase still bound, per cent of control: 100%
PIM3 (human)
  kinase still bound, per cent of control: 100%
[3]
  kinase still bound, per cent of control: 78%
STK24 (human)
  kinase still bound, per cent of control: 100%
TLK1 (human)
  kinase still bound, per cent of control: 86%
TAOK1 (human)
  kinase still bound, per cent of control: 75%
DMPK (human)
  kinase still bound, per cent of control: 100%
MAP4K2 (human)
  kinase still bound, per cent of control: 100%
AURKB (human)
  kinase still bound, per cent of control: 74%
DAPK2 (human)
  kinase still bound, per cent of control: 100%
RPS6KA6 KD2 (human)
  kinase still bound, per cent of control: 100%
[4]
  kinase still bound, per cent of control: 100%
DYRK1B (human)
  kinase still bound, per cent of control: 100%
ACVR2B (human)
  kinase still bound, per cent of control: 100%
KIT (human)
  kinase still bound, per cent of control: 74%
CAMKK1 (human)
  kinase still bound, per cent of control: 100%
CHUK (human)
  kinase still bound, per cent of control: 83%
CLK2 (human)
  kinase still bound, per cent of control: 96%
PHKG2 (human)
  kinase still bound, per cent of control: 90%
ULK2 (human)
  kinase still bound, per cent of control: 89%
RIPK2 (human)
  kinase still bound, per cent of control: 100%
STK16 (human)
  kinase still bound, per cent of control: 85%
BRSK2 (human)
  kinase still bound, per cent of control: 100%
DCLK3 (human)
  kinase still bound, per cent of control: 100%
CSNK1G1 (human)
  kinase still bound, per cent of control: 100%
MYLK3 (human)
  kinase still bound, per cent of control: 100%
[5]
  kinase still bound, per cent of control: 95%
[6]
  kinase still bound, per cent of control: 86%
PIM2 (human)
  kinase still bound, per cent of control: 100%
[7]
  kinase still bound, per cent of control: 61%
PRKD3 (human)
  kinase still bound, per cent of control: 90%
TNK1 (human)
  kinase still bound, per cent of control: 92%

## O=C1NC(=O)/C(=C/c2c[nH]c(=O)c(-c3ccc(N4CCNCC4)nc3)c2)S1
RIOK3 (human)
  kinase still bound, per cent of control: 3.4%
[1]
  kinase still bound, per cent of control: 76%
CDK7 (human)
  kinase still bound, per cent of control: 5.6%
CDK16 (human)
  kinase still bound, per cent of control: 70%
STK11 (human)
  kinase still bound, per cent of control: 17%
MAP2K3 (human)
  kinase still bound, per cent of control: 65%
[2]
  kinase still bound, per cent of control: 64%
MAPK15 (human)
  Kd: 390 nM
  kinase still bound, per cent of control: 0.5%
STK17A (human)
  Kd: 190 nM
  kinase still bound, per cent of control: 0.05%
RIOK1 (human)
  kinase still bound, per cent of control: 5%
CLK4 (human)
  kinase still bound, per cent of control: 15%
PIM3 (human)
  Kd: 3.7 nM
  kinase still bound, per cent of control: 0.65%
[3]
  kinase still bound, per cent of control: 67%
STK24 (human)
  kinase still bound, per cent of control: 71%
TLK1 (human)
  kinase still bound, per cent of control: 66%
TAOK1 (human)
  kinase still bound, per cent of control: 24%
DMPK (human)
  kinase still bound, per cent of control: 3.6%
MAP4K2 (human)
  kinase still bound, per cent of control: 32%
AURKB (human)
  kinase still bound, per cent of control: 71%
DAPK2 (human)
  Kd: 6.1 nM
  kinase still bound, per cent of control: 0.5%
RPS6KA6 KD2 (human)
  kinase still bound, per cent of control: 29%
[4]
  kinase still bound, per cent of control: 71%
DYRK1B (human)
  kinase still bound, per cent of control: 3%
ACVR2B (human)
  kinase still bound, per cent of control: 36%
KIT (human)
  kinase still bound, per cent of control: 82%
CAMKK1 (human)
  kinase still bound, per cent of control: 14%
CHUK (human)
  kinase still bound, per cent of control: 53%
CLK2 (human)
  Kd: 150 nM
  kinase still bound, per cent of control: 0%
PHKG2 (human)
  kinase still bound, per cent of control: 6.6%
ULK2 (human)
  Kd: 220 nM
  kinase still bound, per cent of control: 0.85%
RIPK2 (human)
  kinase still bound, per cent of control: 9.9%
STK16 (human)
  kinase still bound, per cent of control: 36%
BRSK2 (human)
  kinase still bound, per cent of control: 100%
DCLK3 (human)
  kinase still bound, per cent of control: 2%
CSNK1G1 (human)
  kinase still bound, per cent of control: 35%
MYLK3 (human)
  kinase still bound, per cent of control: 2.6%
[5]
  kinase still bound, per cent of control: 58%
[6]
  kinase still bound, per cent of control: 85%
PIM2 (human)
  kinase still bound, per cent of control: 1.1%
[7]
  kinase still bound, per cent of control: 72%
PRKD3 (human)
  kinase still bound, per cent of control: 13%
TNK1 (human)
  kinase still bound, per cent of control: 100%

## CN1C(=O)c2ccccc2N(C)c2nc(Nc3ccc(N4CCC(O)CC4)cc3)ncc21
RIOK3 (human)
  kinase still bound, per cent of control: 82%
[1]
  kinase still bound, per cent of control: 69%
CDK7 (human)
  kinase still bound, per cent of control: 60%
CDK16 (human)
  kinase still bound, per cent of control: 100%
STK11 (human)
  kinase still bound, per cent of control: 100%
MAP2K3 (human)
  kinase still bound, per cent of control: 84%
[2]
  kinase still bound, per cent of control: 4.8%
MAPK15 (human)
  kinase still bound, per cent of control: 100%
STK17A (human)
  kinase still bound, per cent of control: 100%
RIOK1 (human)
  kinase still bound, per cent of control: 90%
CLK4 (human)
  kinase still bound, per cent of control: 100%
PIM3 (human)
  kinase still bound, per cent of control: 100%
[3]
  kinase still bound, per cent of control: 80%
STK24 (human)
  kinase still bound, per cent of control: 82%
TLK1 (human)
  kinase still bound, per cent of control: 69%
TAOK1 (human)
  kinase still bound, per cent of control: 0.9%
DMPK (human)
  kinase still bound, per cent of control: 100%
MAP4K2 (human)
  kinase still bound, per cent of control: 80%
AURKB (human)
  kinase still bound, per cent of control: 1.4%
DAPK2 (human)
  kinase still bound, per cent of control: 100%
RPS6KA6 KD2 (human)
  kinase still bound, per cent of control: 63%
[4]
  kinase still bound, per cent of control: 28%
DYRK1B (human)
  kinase still bound, per cent of control: 100%
ACVR2B (human)
  kinase still bound, per cent of control: 45%
KIT (human)
  kinase still bound, per cent of control: 66%
CAMKK1 (human)
  kinase still bound, per cent of control: 98%
CHUK (human)
  kinase still bound, per cent of control: 79%
CLK2 (human)
  kinase still bound, per cent of control: 100%
PHKG2 (human)
  kinase still bound, per cent of control: 100%
ULK2 (human)
  kinase still bound, per cent of control: 6.2%
RIPK2 (human)
  kinase still bound, per cent of control: 66%
STK16 (human)
  kinase still bound, per cent of control: 59%
BRSK2 (human)
  kinase still bound, per cent of control: 48%
DCLK3 (human)
  kinase still bound, per cent of control: 68%
CSNK1G1 (human)
  kinase still bound, per cent of control: 73%
MYLK3 (human)
  kinase still bound, per cent of control: 100%
[5]
  kinase still bound, per cent of control: 100%
[6]
  kinase still bound, per cent of control: 100%
PIM2 (human)
  kinase still bound, per cent of control: 100%
[7]
  kinase still bound, per cent of control: 71%
PRKD3 (human)
  kinase still bound, per cent of control: 69%
TNK1 (human)
  kinase still bound, per cent of control: 0.95%
